The source of these data is paper PMC6098585, “Characterization and structure-activity relationships of indenoisoquinoline-derived topoisomerase I inhibitors in unsilencing the dormant Ube3a gene associated with Angelman syndrome” (Molecular Autism, 2018).

Each structure is given as a SMILES string. Where two headings read alike, the source gives them in different places.

Data set [1] concerns paternal Ube3a-YFP. The experiment in a line: Paternal Ube3a-YFP unsilencing, fluorescence immunostaining and high-content imaging in primary cortical neurons (Ube3a^m+/pYFP). Type of data set: cell-based, mouse. Conditions: for neurons expressing paternal Ube3a-YFP above threshold: 0.3 μM, n = 4 wells, YFP-positive cells / total Hoechst-positive cells. The procedure: We followed the protocols for fluorescent immunostaining and high-content imaging of cortical neurons as previously described. Briefly, 72 h after drug treatment, the cells were fixed with 4% paraformaldehyde at room temperature for 15 min. After rinsing with phosphate-buffered saline (PBS) three times, the cells were permeabilized with 1% Triton-X 100 in PBS, followed by blocking with 5% NGS and 0.1% Triton-X 100 in PBS at room temperature for 30 min. After blocking, the cells were incubated with primary antibody, rabbit anti-GFP (1:1000, Novus Biologicals), at 4 °C overnight. The cells were then briefly rinsed with PBS followed by incubation with secondary antibody, goat anti-rabbit Alexa Fluor 488 (1:200, Thermo Fisher/Invitrogen), at room temperature. One hour after secondary antibody incubation, the cells were rinsed with PBS and fluorescent images were acquired using a BD Pathway 855 bioimager. The acquired images were processed by CellProfiler to count the number of positive cells and measure fluorescent intensity (Additional file 2). To determine the percentage of neurons expressing paternal Ube3a-YFP, we counted the total number of cells (Hoechst) and YFP-positive cells, and the number of YFP-positive cells was divided by the total number of cells. Fluorescence intensity was measured in neurons expressing unsilenced paternal Ube3a-YFP and normalized to vehicle control.

Data set [2] can be described thus: Cytotoxicity test (Cyto Tox-Glo) in cultured cortical neurons. Conditions: mouse, primary cultured cortical neurons from E14.5 embryos.
For data set [3], the system named is paternal UBE3A. The experiment in a line: Western blot of paternal UBE3A in cultured neurons from AS model mice (Ube3a^m−/p+). It counts as cell-based, mouse. Conditions: 0.3 μM, 72 h, vs DMSO, n = 3/group. The procedure:
(§1) We followed the same procedures of Western blot analysis as previously described. In brief, 72 h after drug treatment, we collected the cultured neurons from 6-well plates and extracted total protein with protein extraction buffer. Bradford assay was performed to measure protein concentration, and 30 μg of total protein was loaded for Bis-polyacrylamide gel electrophoresis (Bio-Rad). Electrophoresed proteins were transferred to nitrocellulose membrane (0.45 μm, Bio-Rad). The membranes were blocked with 5% non-fat milk in TBS-T at room temperature for 30 min followed by overnight 4 °C incubation with primary antibodies (rabbit anti-GFP, 1:1000, Novus Biologicals; rabbit anti-Ube3a, 1:1000, Bethyl Lab; mouse anti-actin; 1:5000, Sigma). The next day, the membranes were rinsed with TBS-T three times and incubated with HPR-conjugated secondary antibodies for 1 h at room temperature (goat anti-rabbit, 1:1000, Vector Lab or goat anti-mouse, 1:1000, Vector Lab). Following secondary antibody incubation, the membranes were rinsed with TBS-T at room temperature for 1 h (4–5 times) and ECL substrates (Bio-Rad) were used to visualize immunostaining using an Amersham Imager 600 (AI600, GE Life Sciences).

Data set [4] has as its system paternal Ube3a-YFP. The experiment in a line: Western blot of paternal UBE3A-YFP in cultured neurons from Ube3a^m+/pYFP mice. It counts as cell-based, mouse. The note with it: 0.3 μM, 72 h, n = 3/group. Here is the method:
as §1

Data set [5] has as its system Top1. Conditions: cited from earlier work.
The subject of data set [6] is ABCG2. Details: method as in PMID 17974983. Conditions: cited from earlier work.
The subject of data set [7] is MDR1. Further details: method as in PMID 17974983. The note with it: cited from earlier work.
On the set-up of data set [8]: method as in earlier work. The note with it: cited from earlier work.
Data set [9] in a line: in vitro. The note with it: mouse.
Details of data set [10]: method as in PMID 27169793. Conditions: at the concentrations examined; cited from earlier work.
The mark [11] stands for this setting: Table S1, nine analogues, unsilencing of paternal UBE3A-YFP, 72 h.
Where [12] appears, read: Table S1, nine analogues, unsilencing of paternal UBE3A-YFP, 72 h, 'ambiguous' = limited effective dose range, read-out: EC50.
The mark [13] stands for this setting: Mus musculus, Primary cortical neuron, unsilencing of paternal UBE3A-YFP, drug 72 h from DIV 7, n = 4/group, estimated from Fig. 4, read-out: EC50.
The mark [14] stands for this setting: maximum response of unsilencing paternal Ube3a-YFP, fluorescence intensity normalized to vehicle control, 72 h, estimated from Fig. 4.

Take `COc1cc2c3c(n(C[C@H](O)CO)c(=O)c2cc1OC)-c1cc2c(cc1C3=O)OCO2` [DB-IV-50]: the Emax in data set [1] (setting [11]) is listed as 1.39 (±0.07). Moreover, the EC50 in data set [1] (setting [12]) was found to be 121 nM.
On to `COc1cc2c3c(n(C[C@@H](O)CO)c(=O)c2cc1OC)-c1cc2c(cc1C3=O)OCO2` [DB-IV-58], for which the “neurons expressing paternal Ube3a-YFP above threshold” value in data set [1] (72 h) is 17.7 ± 3.87%. The 50% effective concentration (EC50) in data set [1] (setting [13]) is 31 nM. In data set [1] (setting [14]), the Emax is reported as 1.45 (± 0.12). The CC50 at 72 h in [2] came to 2010 nM. Further, the “paternal UBE3A protein level (Western blot, normalized to actin)” value in [3] is reported as “high level of paternal UBE3A protein”. Further, in [4], the “paternal UBE3A-YFP protein level (Western blot, normalized to actin)” value is recorded as “led to paternal UBE3A-YFP protein production”.
Take `O=C1c2ccccc2-c2c1c1ccc([N+](=O)[O-])cc1c(=O)n2CC(O)C(O)C(O)CO` (centres unmarked) [DB-V-37]: the “neurons expressing paternal Ube3a-YFP above threshold” value in data set [1] (72 h) is reported as 14.1 ± 3.55%. In addition, the EC50 in [1] (setting [13]) was 29.9 nM. Moreover, the Emax in data set [1] (setting [14]) is given as 1.48 (± 0.08). The compound also displayed a CC50 at 72 h in [2] of 2020 nM. Moreover, the “paternal UBE3A protein level (Western blot, normalized to actin)” value in data set [3] was “high level of paternal UBE3A protein”. In [4], the “paternal UBE3A-YFP protein level (Western blot, normalized to actin)” value is recorded as “led to paternal UBE3A-YFP protein production”.
Turning to `COc1cc2c3c(n(CCCn4ccnc4)c(=O)c2cc1OC)-c1cc2c(cc1C3=O)OCO2` [Indimitecan, indimitecan], the “neurons expressing paternal Ube3a-YFP above threshold” value in [1] (72 h) was determined as 23.9 ± 1.72%. Also, the EC50 in data set [1] (setting [13]) is 7.47 nM. Further, in data set [1] (setting [14]), the Emax is listed as 1.47 (± 0.10). Also, the “inhibition of Top1 enzymatic activity” value in [5] is approximately 100%. In data set [2], this compound came in with a CC50 at 72 h of 789 nM. For the same compound, in data set [3], the “paternal UBE3A protein level (Western blot, normalized to actin)” value was “high level of paternal UBE3A protein”. Moreover, in [4], the “paternal UBE3A-YFP protein level (Western blot, normalized to actin)” value was “led to paternal UBE3A-YFP protein production”.
Regarding `COc1cc2c3c(n(CCCN4CCOCC4)c(=O)c2cc1OC)-c1cc2c(cc1C3=O)OCO2` [Indotecan, indotecan], the “neurons expressing paternal Ube3a-YFP above threshold” value in data set [1] (72 h) was 37.1 ± 5.19%. Further, the EC50 is approximately 26 nM in [1] (Mus musculus, Primary cortical neuron, read-out: EC50 to produce Ube3a unsilencing) and 25.6 nM in data set [1] (setting [13]). In addition, in data set [1] (setting [14]), the Emax is 1.78 (± 0.13). For the same compound, in data set [5], the “inhibition of Top1 enzymatic activity” value is recorded as approximately 100%. For the same compound, in [6], the “substrate for transporter ABCG2” value was “not a substrate”. Moreover, the “substrate for transporter MDR1” value in data set [7] was “not a substrate”. Moreover, the CNS penetration result in data set [8] is listed as “favorable CNS penetration”. The same compound displayed a CC50 at 72 h in data set [9] of 2010 nM. Further, the “paternal UBE3A protein level (Western blot, normalized to actin)” value in data set [3] is “high level of paternal UBE3A protein”. Further, in [10], the “tolerability in a clinical population” value is given as “well tolerated”. Besides, the “paternal UBE3A-YFP protein level (Western blot, normalized to actin)” value in data set [4] is reported as “led to paternal UBE3A-YFP protein production”.
As to `C=CCn1c2c(c3cc(OC)c(OC)cc3c1=O)C(=O)c1cc3c(cc1-2)OCO3` [MJ-II-66A], the Emax in data set [1] (setting [11]) is given as 1.20 (±0.05). Also, the EC50 in data set [1] (setting [12]) is approximately 26.8 nM. In addition, in data set [1] (dose-response 1E-10 to 3E-5 M, 72 h), the “range of doses that produce Ube3a-YFP unsilencing before toxicities” value was “very limited range of doses”.
On to `COc1cc2c3c(n(CCCO)c(=O)c2cc1OC)-c1cc2c(cc1C3=O)OCO2` [MNR-IV-64], for which the Emax in data set [1] (setting [11]) is recorded as 1.37 (±0.09). The concentration giving a half-maximal response (EC50) in data set [1] (setting [12]) amounted to 634 nM.
For `CC[C@@]1(O)C(=O)OCc2c1cc1n(c2=O)Cc2cc3c(CN(C)C)c(O)ccc3nc2-1` [Topotecan], the “neurons expressing paternal Ube3a-YFP above threshold” value in [1] (72 h) is on record as 33.0 ± 2.56%. The 50% effective concentration (EC50) in [1] (setting [13]) is 30.4 nM. In data set [1] (setting [14]), the Emax was 1.51 (± 0.11). Further, in data set [9], the CC50 at 72 h was determined as 2300 nM. For the same compound, the “paternal UBE3A protein level (Western blot, normalized to actin)” value in data set [3] is “high level of paternal UBE3A protein”. In data set [4], the “paternal UBE3A-YFP protein level (Western blot, normalized to actin)” value was “led to paternal UBE3A-YFP protein production”.
